Patent publication US10660877B2 (BRISTOL-MYERS SQUIBB COMPANY, priority 2016, dated 2020)
Where two headings read alike, the source gives them in different places.

Tests used:
human TLR7 = human TLR7 (Homo sapiens (Human), UniProt Q9NYK1); assay: TLR7 inhibition reporter assay (HEK-Blue cells, SEAP reporter, gardiquimod stimulation); format: cell-based
human TLR8 = human TLR8 (Homo sapiens (Human), UniProt Q9NR97); assay: TLR8 inhibition reporter assay (HEK-Blue cells, SEAP reporter, R848 stimulation);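 also: compounds tested from 0.05 nM to 50 µM, 22 h at 37 °C, SEAP measured with HEK-Blue Detection, inhibition relative to agonist plus DMSO versus a known inhibitor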
human TLR8, sequence (Q9NR97 27-1041): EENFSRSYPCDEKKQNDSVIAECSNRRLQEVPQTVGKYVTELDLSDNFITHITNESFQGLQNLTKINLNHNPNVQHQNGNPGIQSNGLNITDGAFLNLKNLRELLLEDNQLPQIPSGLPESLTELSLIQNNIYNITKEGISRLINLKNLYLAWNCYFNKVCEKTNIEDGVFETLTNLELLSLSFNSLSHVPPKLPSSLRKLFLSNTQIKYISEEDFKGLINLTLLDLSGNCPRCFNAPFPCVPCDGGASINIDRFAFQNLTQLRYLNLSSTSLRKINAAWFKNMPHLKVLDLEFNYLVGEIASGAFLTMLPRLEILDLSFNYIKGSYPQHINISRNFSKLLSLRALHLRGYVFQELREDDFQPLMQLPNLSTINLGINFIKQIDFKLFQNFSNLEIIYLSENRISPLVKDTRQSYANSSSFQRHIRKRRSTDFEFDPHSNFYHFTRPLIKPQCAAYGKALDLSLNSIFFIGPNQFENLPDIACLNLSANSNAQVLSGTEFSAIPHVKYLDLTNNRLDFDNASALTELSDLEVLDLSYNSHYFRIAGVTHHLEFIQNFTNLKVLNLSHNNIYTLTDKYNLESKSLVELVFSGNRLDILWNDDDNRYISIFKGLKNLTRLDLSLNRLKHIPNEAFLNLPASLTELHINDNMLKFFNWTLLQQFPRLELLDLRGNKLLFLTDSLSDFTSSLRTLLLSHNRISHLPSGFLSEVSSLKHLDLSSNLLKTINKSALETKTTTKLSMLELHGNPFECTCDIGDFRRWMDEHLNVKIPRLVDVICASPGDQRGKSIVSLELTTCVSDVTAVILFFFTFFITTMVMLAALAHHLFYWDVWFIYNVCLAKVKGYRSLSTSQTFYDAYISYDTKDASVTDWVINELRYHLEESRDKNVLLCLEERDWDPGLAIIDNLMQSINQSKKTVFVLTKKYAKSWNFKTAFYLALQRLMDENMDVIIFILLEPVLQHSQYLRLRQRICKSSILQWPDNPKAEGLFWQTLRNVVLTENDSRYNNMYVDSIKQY

human TLR9 = human TLR9 (Homo sapiens (Human), UniProt Q9NR96); assay: TLR9 inhibition reporter assay (HEK-Blue cells, SEAP reporter, ODN2006 stimulation);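 also: compounds tested over 0.05 nM to 50 µM, 22 h incubation, inhibition taken as SEAP signal drop from agonist plus DMSO wells toward a known inhibitor control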
human TLR9, sequence (Q9NR96 26-1032): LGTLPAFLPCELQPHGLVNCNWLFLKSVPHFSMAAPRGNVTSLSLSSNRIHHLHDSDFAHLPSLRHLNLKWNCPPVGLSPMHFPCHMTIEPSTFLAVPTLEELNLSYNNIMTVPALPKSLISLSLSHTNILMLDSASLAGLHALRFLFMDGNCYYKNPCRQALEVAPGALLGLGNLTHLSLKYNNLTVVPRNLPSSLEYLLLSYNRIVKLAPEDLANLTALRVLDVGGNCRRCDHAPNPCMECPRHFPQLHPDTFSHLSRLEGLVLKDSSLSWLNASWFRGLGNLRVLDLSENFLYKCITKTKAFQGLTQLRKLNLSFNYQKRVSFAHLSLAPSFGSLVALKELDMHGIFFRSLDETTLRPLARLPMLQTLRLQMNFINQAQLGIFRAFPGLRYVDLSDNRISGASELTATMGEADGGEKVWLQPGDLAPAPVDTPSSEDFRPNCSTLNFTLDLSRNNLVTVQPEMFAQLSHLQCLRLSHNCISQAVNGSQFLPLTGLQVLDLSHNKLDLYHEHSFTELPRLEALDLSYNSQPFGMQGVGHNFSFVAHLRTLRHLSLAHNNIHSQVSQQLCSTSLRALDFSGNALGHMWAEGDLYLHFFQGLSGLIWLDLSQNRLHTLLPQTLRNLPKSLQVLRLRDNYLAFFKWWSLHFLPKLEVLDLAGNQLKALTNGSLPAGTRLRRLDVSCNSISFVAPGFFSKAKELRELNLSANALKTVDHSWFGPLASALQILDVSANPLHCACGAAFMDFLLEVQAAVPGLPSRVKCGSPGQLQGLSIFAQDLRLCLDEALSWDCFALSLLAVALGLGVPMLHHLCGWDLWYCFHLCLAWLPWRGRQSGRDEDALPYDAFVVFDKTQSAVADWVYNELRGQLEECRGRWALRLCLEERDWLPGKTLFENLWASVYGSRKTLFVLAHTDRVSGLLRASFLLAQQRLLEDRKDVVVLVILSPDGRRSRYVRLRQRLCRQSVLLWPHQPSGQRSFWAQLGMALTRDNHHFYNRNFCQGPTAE

[1] = HEK-Blue cells overexpressing human TLR7, gardiquimod 7.5 μM
[2] = read-out: TLR8 IC50, HEK-Blue cells overexpressing human TLR8, R848 15.9 μM
[3] = read-out: TLR9 IC50, HEK-Blue cells overexpressing human TLR9, ODN2006 5 nM

human TLR7, sequence (Q9NYK1 27-1049): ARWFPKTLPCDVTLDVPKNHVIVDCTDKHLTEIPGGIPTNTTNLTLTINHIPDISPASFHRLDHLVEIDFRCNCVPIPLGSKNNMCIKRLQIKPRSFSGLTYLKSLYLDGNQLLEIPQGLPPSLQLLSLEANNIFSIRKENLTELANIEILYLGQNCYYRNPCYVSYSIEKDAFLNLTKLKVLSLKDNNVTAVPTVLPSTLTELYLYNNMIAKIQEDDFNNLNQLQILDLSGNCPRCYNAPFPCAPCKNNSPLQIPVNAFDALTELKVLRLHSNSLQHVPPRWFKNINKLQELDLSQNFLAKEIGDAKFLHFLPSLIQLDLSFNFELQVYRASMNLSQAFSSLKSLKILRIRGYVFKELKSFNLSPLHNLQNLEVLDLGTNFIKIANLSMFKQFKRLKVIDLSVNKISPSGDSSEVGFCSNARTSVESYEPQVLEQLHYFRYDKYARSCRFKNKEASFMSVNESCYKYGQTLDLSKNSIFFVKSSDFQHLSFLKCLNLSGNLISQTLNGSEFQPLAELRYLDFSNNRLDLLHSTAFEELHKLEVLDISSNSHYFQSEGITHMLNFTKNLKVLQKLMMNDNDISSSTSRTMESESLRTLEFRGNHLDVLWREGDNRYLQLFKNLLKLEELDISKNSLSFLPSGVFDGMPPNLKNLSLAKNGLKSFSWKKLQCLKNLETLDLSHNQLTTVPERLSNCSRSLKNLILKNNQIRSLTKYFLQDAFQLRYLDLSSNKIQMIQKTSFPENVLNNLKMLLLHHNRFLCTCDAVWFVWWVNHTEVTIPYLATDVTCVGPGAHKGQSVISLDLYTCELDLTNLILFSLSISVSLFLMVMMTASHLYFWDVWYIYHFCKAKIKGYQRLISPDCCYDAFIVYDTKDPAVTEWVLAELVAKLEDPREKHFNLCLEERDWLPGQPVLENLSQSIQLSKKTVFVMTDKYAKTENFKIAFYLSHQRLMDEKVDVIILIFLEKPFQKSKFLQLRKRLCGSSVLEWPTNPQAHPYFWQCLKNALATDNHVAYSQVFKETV

SMILES | IC50 (human TLR7; [1]) [nM] | IC50 (human TLR8; [2]) [nM] | IC50 (human TLR9; [3]) [nM] | IC50 (human TLR8; TLR8 IC50, HEK-Blue cells overexpressing human TLR8, R848 15.9 μM) [nM] | IC50 (human TLR9; TLR9 IC50, HEK-Blue cells overexpressing human TLR9, ODN2006 5 nM) [nM] | IC50 (human TLR7; HEK-Blue cells, gardiquimod 7.5 μM) [nM] | IC50 (human TLR8; read-out: TLR8 IC50, HEK-Blue cells, R848 15.9 μM) [nM] | IC50 (human TLR9; read-out: TLR9 IC50, HEK-Blue cells, ODN2006 5 nM) [nM]
Cc1cc(-c2[nH]c3ccc(C4CCN(C(=O)CN5CC(F)(F)C5)CC4)cc3c2C(C)C)cc(C)n1 [Example 340, 2-(3,3-difluoroazetidin-1-yl)-1-(4-(2-(2,6-dimethylpyridin-4-yl)-3-isopropyl-1H-indol-5-yl)piperidin-1-yl)ethan-1-one] | 14.7 | 104 | 36000 | – | – | – | – | –
Cc1cc(-c2[nH]c3ccc(C4CCNCC4)cc3c2C2CC2)ccn1 [Example 88, 3-cyclopropyl-2-(2-methylpyridin-4-yl)-5-(piperidin-4-yl)-1H-indole] | 11.9 | 7 | 71 | – | – | – | – | –
CCc1c(-c2cc(Cl)ncc2F)[nH]c2ccc(C3CCN(C4CCN(CC(C)C)CC4)CC3)cc12 [Example 760, 2-(2-chloro-5-fluoropyridin-4-yl)-3-ethyl-5-(1′-isobutyl-[1,4′-bipiperidin]-4-yl)-1H-indole] | 537 | 107 | 2390 | – | – | – | – | –
COc1ncc(CN2CCC(c3ccc4[nH]c(-c5cc(C)nc(C)c5)c(C(C)C)c4c3)CC2)cn1 [Example 430, 2-(2,6-dimethylpyridin-4-yl)-3-isopropyl-5-(1-((2-methoxypyrimidin-5-yl)methyl)piperidin-4-yl)-1H-indole] | 10.1 | 5.9 | 369 | – | – | – | – | –
CCC(=O)N1CCC(c2ccc3[nH]c(-c4cc(C)nc(C)c4)c(C(C)C)c3c2)CC1 [Example 206, 1-(4-(2-(2,6-dimethylpyridin-4-yl)-3-isopropyl-1H-indol-5-yl)piperidin-1-yl)propan-1-one] | 5.4 | 100 | 41900 | – | – | – | – | –
CCCNC(=O)CN1CCC(c2ccc3[nH]c(-c4cc(C)nc(C)c4)c(C(C)C)c3c2)CC1 [Example 238, 2-(4-(2-(2,6-dimethylpyridin-4-yl)-3-isopropyl-1H-indol-5-yl)piperidin-1-yl)-N-propylacetamide] | 5.2 | 10.2 | 942 | – | – | – | – | –
Cc1cc(-c2[nH]c3ccc(C4CCN(C(=O)CNC(CO)CC(C)C)CC4)cc3c2C(C)C)cc(C)n1 (stereo not drawn) [Example 382, 1-(4-(2-(2,6-dimethylpyridin-4-yl)-3-isopropyl-1H-indol-5-yl)piperidin-1-yl)-2-((1-hydroxy-4-methylpentan-2-yl)amino)ethan-1-one] | 7.6 | 44.1 | 769 | – | – | – | – | –
CCS(=O)(=O)N1CCC(c2ccc3[nH]c(-c4ccnc(C)c4)c(C(C)C)c3c2)CC1 [Example 549, 5-(1-(ethylsulfonyl)piperidin-4-yl)-3-isopropyl-2-(2-methylpyridin-4-yl)-1H-indole] | 55.6 | 164 | > 50000 | – | – | – | – | –
Cc1nccc(-c2[nH]c3ccc(C4CCN(C(=O)CN(C)C)CC4)cc3c2C(C)C)c1F [Example 587, 2-(dimethylamino)-1-(4-(2-(3-fluoro-2-methylpyridin-4-yl)-3-isopropyl-1H-indol-5-yl)piperidin-1-yl)ethan-1-one] | 2.7 | 5.2 | 2910 | – | – | – | – | –
CNC(=O)CN1CCC(c2ccc3[nH]c(-c4cc(C)nc(C)c4F)c(C(C)C)c3c2)CC1 [Example 655, 2-(4-(2-(3-fluoro-2,6-dimethylpyridin-4-yl)-3-isopropyl-1H-indol-5-yl)piperidin-1-yl)-N-methylacetamide] | 1.3 | 4.2 | 1750 | – | – | – | – | –
CCc1c(-c2ccnc(C)c2)[nH]c2ccc(C3CCN(C)CC3)cc12 [Example 670, 3-ethyl-5-(1-methylpiperidin-4-yl)-2-(2-methylpyridin-4-yl)-1H-indole] | 68.1 | 64.8 | 663 | – | – | – | – | –
CC(C)c1c(-c2ccnc(F)c2)[nH]c2ccc(C3CCN(C(=O)CN(C)C)CC3)cc12 [Example 522, 2-(dimethylamino)-1-(4-(2-(2-fluoropyridin-4-yl)-3-isopropyl-1H-indol-5-yl)piperidin-1-yl)ethan-1-one] | 23.6 | 47.9 | 2010 | – | – | – | – | –
Cc1cc(-c2[nH]c3ccc(C4CCN(C(=O)CN5CCC(F)(F)CC5)CC4)cc3c2C(C)C)cc(C)n1 [Example 362, 2-(4,4-difluoropiperidin-1-yl)-1-(4-(2-(2,6-dimethylpyridin-4-yl)-3-isopropyl-1H-indol-5-yl)piperidin-1-yl)ethan-1-one] | 33.6 | 55.1 | 16100 | – | – | – | – | –
Cc1cc(-c2[nH]c3ccc(C4CCN(CC(=O)NCC(C)(C)C)CC4)cc3c2C(C)C)cc(C)n1 [Example 219, 2-(4-(2-(2,6-dimethylpyridin-4-yl)-3-isopropyl-1H-indol-5-yl)piperidin-1-yl)-N-neopentylacetamide] | 22.5 | – | – | 47.7 | 2250 | – | – | –
Cc1cc(-c2[nH]c3ccc(C4CCN(C(=O)C5(O)CC5)CC4)cc3c2C(C)C)cc(C)n1 [Example 107, (4-(2-(2,6-dimethylpyridin-4-yl)-3-isopropyl-1H-indol-5-yl)piperidin-1-yl)(1-hydroxycyclopropyl)methanone] | 14.6 | 28.4 | 13400 | – | – | – | – | –
Cc1cc(-c2[nH]c3ccc(C4CCN(C(=O)C5CC(=O)N(C)C5)CC4)cc3c2C(C)C)ccn1 (stereo not drawn) [Example 619, 4-(4-(3-isopropyl-2-(2-methylpyridin-4-yl)-1H-indol-5-yl)piperidine-1-carbonyl)-1-methylpyrrolidin-2-one] | 51.1 | 67.9 | > 50000 | – | – | – | – | –
Cc1cc(-c2[nH]c3ccc(C4CCN(C(=O)C5CCN(C)C(=O)C5)CC4)cc3c2C(C)C)ccn1 (stereo not drawn) [Example 607, 4-(4-(3-isopropyl-2-(2-methylpyridin-4-yl)-1H-indol-5-yl)piperidine-1-carbonyl)-1-methylpiperidin-2-one] | 94 | 186 | > 50000 | – | – | – | – | –
COCCN1CCN(C(=O)CN2CCC(c3ccc4[nH]c(-c5cc(C)nc(C)c5)c(C(C)C)c4c3)CC2)CC1 [Example 265, 2-(4-(2-(2,6-dimethylpyridin-4-yl)-3-isopropyl-1H-indol-5-yl)piperidin-1-yl)-1-(4-(2-methoxyethyl)piperazin-1-yl)ethan-1-one] | 1.5 | 2.8 | 73 | – | – | – | – | –
Cc1cc(-c2[nH]c3ccc(C4CCN(CC(O)C(C)C)CC4)cc3c2C(C)C)cc(C)n1 (stereo not drawn) [Example 855, 1-(4-(2-(2,6-dimethylpyridin-4-yl)-3-isopropyl-1H-indol-5-yl)piperidin-1-yl)-3-methylbutan-2-ol] | – | – | – | – | – | 21.1 | 1.5 | 3300
COc1cc(-c2[nH]c3ccc(C4CCN(CC(F)(F)F)CC4)cc3c2C(C)C)ccn1 [Example 639, 3-isopropyl-2-(2-methoxypyridin-4-yl)-5-(1-(2,2,2-trifluoroethyl)piperidin-4-yl)-1H-indole] | 3110 | 13400 | 19400 | – | – | – | – | –
Cc1cc(-c2[nH]c3ccc(C4CCN(C(=O)C5(C)CCN(C)CC5)CC4)cc3c2C(C)C)cc(C)n1 [Example 176, (1,4-dimethylpiperidin-4-yl)(4-(2-(2,6-dimethylpyridin-4-yl)-3-isopropyl-1H-indol-5-yl)piperidin-1-yl)methanone] | 11.1 | 21.7 | 663 | – | – | – | – | –
